How the values were obtained:
Format in all cases: cell-based
[1] = test system: MDA-MB-231; assay: Cytotoxicity against human MDA-MB-231 cells assessed as effect on cell growth at 10 uM incubated for 48 hrs by sulforhodamine B assay; conditions: mda-mb-231, 48 h
[2] = test system: NCI-H226; assay: Cytotoxicity against human NCI-H226 cells assessed as effect on cell growth at 10 uM incubated for 48 hrs by sulforhodamine B assay; conditions: nci-h226, 48 h
[3] = test system: HOP-92; assay: Cytotoxicity against human HOP92 cells assessed as effect on cell growth at 10 uM incubated for 48 hrs by sulforhodamine B assay; conditions: hop-92, 48 h
[4] = test system: Malme-3M; assay: Cytotoxicity against human MALME-3M cells assessed as effect on cell growth at 10 uM incubated for 48 hrs by sulforhodamine B assay
[5] = test system: 786-0; assay: Cytotoxicity against human 786-0 cells assessed as effect on cell growth at 10 uM incubated for 48 hrs by sulforhodamine B assay; conditions: 786-0, 48 h
[6] = test system: M14; assay: Cytotoxicity against human M14 cells assessed as effect on cell growth at 10 uM incubated for 48 hrs by sulforhodamine B assay; conditions: m14, 48 h
[7] = test system: SF-268; assay: Cytotoxicity against human SF268 cells assessed as effect on cell growth at 10 uM incubated for 48 hrs by sulforhodamine B assay; conditions: sf-268, 48 h
[8] = test system: SK-MEL-5; assay: Cytotoxicity against human SK-MEL-5 cells assessed as effect on cell growth at 10 uM incubated for 48 hrs by sulforhodamine B assay; conditions: sk-mel-5, 48 h
[9] = test system: NCI-H322M; assay: Cytotoxicity against human NCI-H322M cells assessed as effect on cell growth at 10 uM incubated for 48 hrs by sulforhodamine B assay
[10] = test system: HL-60(TB); assay: Cytotoxicity against human HL-60(TB) cells assessed as effect on cell growth at 10 uM incubated for 48 hrs by sulforhodamine B assay
[11] = test system: PC-3; assay: Cytotoxicity against human PC3 cells assessed as effect on cell growth at 10 uM incubated for 48 hrs by sulforhodamine B assay; conditions: pc-3, 48 h
[12] = test system: UACC-62; assay: Cytotoxicity against human UACC62 cells assessed as effect on cell growth at 10 uM incubated for 48 hrs by sulforhodamine B assay; conditions: uacc-62, 48 h
[13] = test system: MDA-MB-468; assay: Cytotoxicity against human MDA-MB-468 cells assessed as effect on cell growth at 10 uM incubated for 48 hrs by sulforhodamine B assay; conditions: mda-mb-468, 48 h
[14] = test system: OVCAR-5; assay: Cytotoxicity against human OVCAR5 cells assessed as effect on cell growth at 10 uM incubated for 48 hrs by sulforhodamine B assay; conditions: ovcar-5, 48 h
[15] = test system: HCT-15; assay: Cytotoxicity against human HCT15 cells assessed as effect on cell growth at 10 uM incubated for 48 hrs by sulforhodamine B assay; conditions: hct-15, 48 h
[16] = test system: DU-145; assay: Cytotoxicity against human DU145 cells assessed as effect on cell growth at 10 uM incubated for 48 hrs by sulforhodamine B assay; conditions: du-145, 48 h
[17] = test system: U-251; assay: Cytotoxicity against human U251 cells assessed as effect on cell growth at 10 uM incubated for 48 hrs by sulforhodamine B assay; conditions: u-251, 48 h
[18] = test system: EKVX; assay: Cytotoxicity against human EKVX cells assessed as effect on cell growth at 10 uM incubated for 48 hrs by sulforhodamine B assay
[19] = test system: MCF7; assay: Cytotoxicity against human MCF7 cells assessed as effect on cell growth at 10 uM incubated for 48 hrs by sulforhodamine B assay; conditions: mcf7, 48 h
[20] = test system: HCT-116; assay: Cytotoxicity against human HCT116 cells assessed as effect on cell growth at 10 uM incubated for 48 hrs by sulforhodamine B assay; conditions: hct-116, 48 h

Measured: Activity

O=C(Nc1ccc(Cl)cc1Cl)[C@@H]1CCC(=O)N1Cc1ccccc1Cl
Non-Toxic: all assays above

O=C(NCc1ccc(Cl)cc1Cl)[C@@H]1CCC(=O)N1Cc1ccc(Cl)cc1
Non-Toxic: all assays above

CCCCCCN1C(=O)[C@@H]2C/C(=C\N(C)C)C(=O)N2C1N(C)C (stereo not given in full)
Non-Toxic: all assays above

N#Cc1ccc(N2C(=O)CC[C@H]2C(=O)NCc2ccc(Cl)cc2Cl)cc1
Non-Toxic: all assays above

CCCCCCN1C(=O)[C@@H]2CCC(=O)N2C1N(C)C (stereo not given in full)
Non-Toxic: all assays above

Reference: ChEMBL document CHEMBL4627246, “Pyroglutamide-Based P2X7 Receptor Antagonists Targeting Inflammatory Bowel Disease” (J Med Chem, 2020)
